The nature of data set [1]: Toxicity in BALB/c mouse assessed as change in body weight at 20 mg/kg, iv measured once every two days for 7 days. In kind it is organism-based. The settings on record: in vivo, 168 h, time 7 day.
For data set [2], the system named is A-375. Briefly: Antitumor activity against human A-375 cells implanted in BALB/c mouse assessed as suppression of tumor growth at 20 mg/kg, ip measured once every two days for 14 days. The format is functional, organism-based. The settings on record: time 14.0 day.
The subject of data set [3] is A-375. Briefly: Antitumor activity against human A-375 cells implanted in BALB/c mouse assessed as shrinkage of tumor tissue at 20 mg/kg, ip measured once every two days for 14 days. The format is functional, organism-based. The settings on record: time 14.0 day.
Data set [4] deals with A-375. Kind of data set: Antitumor activity against human A-375 cells implanted in BALB/c mouse assessed as reduction in tumor weight at 20 mg/kg, ip measured once every two days for 14 days. The format is functional, organism-based. As to conditions: time 14.0 day.
Data set [5] relates to A-375. Briefly: Antitumor activity against human A-375 cells implanted in BALB/c mouse assessed as reduction in tumor weight at 70 mg/kg, ip measured once every two days for 14 days. In kind it is functional, organism-based. The settings on record: time 14.0 day.
The nature of data set [6]: Toxicity in BALB/c mouse assessed as change in body weight at 70 mg/kg, iv measured once every two days for 7 days. In kind it is organism-based. The settings on record: in vivo, 168 h, time 7 day.
The subject of data set [7] is A-375. Briefly: Antitumor activity against human A-375 cells implanted in BALB/c mouse assessed as tumor growth inhibition at 70 mg/kg, ip measured once every two days for 14 days. In kind it is functional, organism-based. As to conditions: time 14.0 day.
For data set [8], the system named is A-375. Kind of data set: Antitumor activity against human A-375 cells implanted in BALB/c mouse assessed as shrinkage of tumor tissue at 70 mg/kg, ip measured once every two days for 14 days. The format is functional, organism-based. The settings on record: time 14.0 day.
Data set [9] has as its system A-375. Briefly: Induction of cell cycle arrest in human A-375 cells assessed as accumulation at S phase at 10 mM incubated for 24 hrs by PI staining based flow cytometry analysis (reference value: 24.01 %). In kind it is functional. In general terms: A flow cytometer gives signals particle by particle.
The nature of data set [10]: Apparent permeability across basolateral to apical side in human Caco-2 cells at 2 uM measured after 2 hrs by LC-MS/MS analysis. The format is ADME, cell-based. (In general: Caco-2 monolayers are a common model of the intestinal barrier.)
Data set [11] concerns MCF7. Kind of data set: Antiproliferative activity against human MCF7 cells assessed as inhibition of cell viability incubated for 72 hrs by MTT assay. In kind it is functional, cell-based. As to conditions: MCF7, 72 h.
The test system of data set [12] is A549. Briefly: Antiproliferative activity against human A549 cells assessed as inhibition of cell viability incubated for 72 hrs by MTT assay. In kind it is functional, cell-based. As to conditions: A549, 72 h. On the technique in general: Tetrazolium assays rely on reduction of a dye to a coloured formazan, in cell work by metabolically active cells.
The subject of data set [13] is A-375. Kind of data set: Effect on mitochondrial bio-energestics in human A-375 cells assessed as increase in OCR/ECRA ratio at 5 mM measured after 4 hrs. In kind it is functional, cell-based.
In data set [14] the test system is MDA-MB-231. Kind of data set: Antiproliferative activity against human MDA-MB-231 cells assessed as inhibition of cell viability incubated for 72 hrs by MTT assay. As to conditions: MDA-MB-231, 72 h. The format is functional, cell-based.
Data set [15] relates to A-375. Kind of data set: Antitumor activity against human A-375 cells xenografted in nude mouse assessed as tumor inhibition ratio at 80 mg/kg, ip measured once every two days for 14 days. The format is functional. The settings on record: A-375, 336 h, time 14 day, read-out: TGI.
Data set [16] deals with A-375. Kind of data set: Inhibition of glycolysis in human A-375 cells assessed as reduction in extracellular acidification rate at 5 mM measured after 4 hrs. The format is functional, cell-based.
Data set [17] has as its system A-375. Briefly: Induction of cell cycle arrest in human A-375 cells assessed as accumulation at G1 phase at 10 mM incubated for 24 hrs by PI staining based flow cytometry analysis (reference value: 68.07 %). The format is functional.
The nature of data set [18]: Efflux ratio of apparent permeability from basolateral to apical side over apical to basolateral side in human Caco2 cells by LC-MS/MS analysis. The format is ADME, cell-based. As to conditions: Caco-2.
For data set [19], the system named is A-375. Kind of data set: Induction of cell cycle arrest in human A-375 cells assessed as accumulation at G2 phase at 10 mM incubated for 24 hrs by PI staining based flow cytometry analysis (reference value: 7.92 %). In kind it is functional.
Data set [20] in a line: Apparent permeability across apical to basolateral side in human Caco-2 cells at 2 uM measured after 2 hrs by LC-MS/MS analysis. In kind it is ADME, cell-based.
In data set [21] the test system is A-375. Briefly: Antiproliferative activity against human A-375 cells assessed as inhibition of cell viability incubated for 72 hrs by MTT assay. In kind it is functional, cell-based. As to conditions: A-375, 72 h.

Calls of active or inactive are those of the source. The rule behind the calls is not given here.

Regarding `CCCS(=O)(=O)Nc1ccc(F)c(C(=O)c2c[nH]c3ncc(-c4ccc(Cl)cc4)cc23)c1F` [VEMURAFENIB], the Activity result in [1] was “Non-Toxic”. The outcome in data set [2], in [3] and in data set [4] was Active.

Regarding `CN(C)/N=N/c1[nH]cnc1C(N)=O` [DACARBAZINE], the result in data set [5], in data set [7] and in data set [8] was Active. Besides, the Activity entry in data set [6] is given as “Toxic”.

On to `O=C(O)CCCc1ccccc1`, for which the Activity is reported as 7.4% in [9], 87.33% in data set [17] and 5.38% in [19]. Further, the Papp B→A at 2 h, 2 µM in [10] stood at 0.74 ×10⁻⁶ cm/s. The IC50 came to 10.7 mM in data set [11], 9.75 mM in [12], 11.7 mM in data set [14] and 8.94 mM in [21]. In addition, the outcome in data set [13] was Active. In [15], the inhibition in vivo at 80 mg/kg amounted to 10%. The inhibition entry in data set [16] was “Active”. The efflux ratio in [18] was more than 1.54. Also, the Papp A→B at 2 h, 2 µM in data set [20] was less than 0.48 ×10⁻⁶ cm/s.

As usually defined, the Papp B→A is the apparent permeability from the basolateral to the apical side of a cell layer. One may read the IC50 as the concentration that gives 50% inhibition. As a reminder, the efflux ratio is a quotient of directional permeabilities that is used to spot active efflux. Broadly, the Papp A→B is the apparent permeability from the apical to the basolateral side of a cell layer.

Values taken from ChEMBL document CHEMBL5120920, “A Mitochondria-Targeted Phenylbutyric Acid Prodrug Confers Drastically Improved Anticancer Activities” (J Med Chem, 2022).
